This note sets out measurements from BindingDB's records for doi:10.1016/j.bmcl.2008.07.062 (The Scripps Research Institute, 2008).

A short description of test [1]: Inhibition of Blk expressed in mouse BAF3 cells assessed as cytotoxicity.
A short description of test [2]: Inhibition of JAK3 expressed in mouse BAF3 cells assessed as cytotoxicity.

For `C=CC(=O)Nc1ccc2ncnc(Nc3cccc(Br)c3)c2c1`, the IC50 in test [1] and in test [2] was over 10 µM in each case.
